Data from PubChem BioAssay (NCI).
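Cultured in 96-well plates, cells were exposed to test compound for 48 hours across five concentrations. At the TGI there is no net growth.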

Assays:
Assay in all cases: DTP human tumour cell line panel, 48 h
[1] = system: OVCAR-5 ovarian
[2] = system: HOP-62 NSCLC
[3] = system: CAKI-1 renal
[4] = system: RXF 393 renal
[5] = system: HCT-116 colon
[6] = system: TK-10 renal
[7] = system: CCRF-CEM leukemia
[8] = system: ACHN renal
[9] = system: SNB-75 CNS
[10] = system: IGROV1 ovarian
[11] = system: BT-549 breast
[12] = system: OVCAR-3 ovarian
[13] = system: HCT-15 colon
[14] = system: SN12C renal
[15] = system: MOLT-4 leukemia
[16] = system: SNB-19 CNS
[17] = system: SF-539 CNS
[18] = system: NCI-H226 lung
[19] = system: NCI/ADR-RES ovarian
[20] = system: COLO 205 colon
[21] = system: UACC-62 melanoma
[22] = system: 786-0 renal
[23] = system: U251 CNS
[24] = system: NCI-H460 lung
[25] = system: M14 melanoma
[26] = system: SW-620 colon
[27] = system: MDA-MB-231 breast
[28] = system: HL-60(TB) leukemia
[29] = system: MCF7 breast
[30] = system: A498 renal
[31] = system: EKVX NSCLC
[32] = system: DU-145 prostate
[33] = system: MDA-MB-435
[34] = system: SK-MEL-28 melanoma
[35] = system: UACC-257 melanoma
[36] = system: KM12 colon
[37] = system: HT29 colon
[38] = system: PC-3 prostate
[39] = system: LOX IMVI melanoma
[40] = system: NCI-H23 lung
[41] = system: SK-OV-3 ovarian
[42] = system: MALME-3M melanoma
[43] = system: K-562 leukemia
[44] = system: SF-295 CNS
[45] = system: OVCAR-8 ovarian
[46] = system: RPMI-8226 leukemia
[47] = system: SK-MEL-5 melanoma
[48] = system: SK-MEL-2 melanoma
[49] = system: HS 578T breast
[50] = system: SF-268 CNS
[51] = system: UO-31 renal
[52] = system: A549 NSCLC
[53] = system: HOP-92 NSCLC
[54] = system: HCC-2998 colon
[55] = system: NCI-H522 lung
[56] = system: SR leukemia

Measured: TGI

Cn1cc(NC(=O)c2cc(NC(=O)c3cc(NC=O)cn3C)cn2C)cc1C(=O)NCCC(=N)N
not listed: [52] | [53] | [54] | [55] | [56]
> 100 µM: all other assays above

O=S(=O)(O)c1ccc(N=Nc2ccc(N=Nc3c(O)ccc4cc(S(=O)(=O)O)ccc34)cc2)cc1
not listed: [14] | [30] | [32] | [39]
> 100 µM: all other assays above
